We go through eleven compounds from PubChem BioAssay (NCI).

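Results reflect a 48-hour exposure of cells in 96-well plates to compound at five concentrations. TGI: total growth inhibition.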

Some test systems named below: SNB-19 CNS; PC-3 prostate; HOP-62 NSCLC; NCI-H460 lung; SK-MEL-2 melanoma; OVCAR-4 ovarian; HL-60(TB) leukemia; OVCAR-8 ovarian; OVCAR-3 ovarian; NCI-H226 lung; HCT-116 colon; SNB-75 CNS; NCI/ADR-RES ovarian.
Assay in all cases: DTP human tumour cell line panel, 48 h

Consider `Cc1cc2c(cc1Cl)SC(NNC1=NCCN1)=NS2(=O)=O`, for which the TGI with SNB-19 CNS, in the assay with PC-3 prostate, with HOP-62 NSCLC, in the assay with NCI-H460 lung, in the assay on SK-MEL-2 melanoma and with OVCAR-4 ovarian was greater than 10 µM throughout. The total growth inhibition concentration (TGI) in the assay on HL-60(TB) leukemia, in the assay with OVCAR-8 ovarian, in the assay with OVCAR-3 ovarian, in the assay with NCI-H226 lung, with HCT-116 colon and in the assay with SNB-75 CNS was greater than 10 µM throughout. The compound also had a TGI in the assay with NCI/ADR-RES ovarian greater than 10 µM.
As for `Cc1ccsc1C(=S)Nc1ccc(Cl)c(/C=N/OC(C)C)c1`, the TGI with SNB-19 CNS was greater than 100 µM; in the assay on PC-3 prostate it was greater than 100 µM; in the assay on HOP-62 NSCLC it was greater than 100 µM; in the assay with NCI-H460 lung, greater than 100 µM; in the assay on SK-MEL-2 melanoma, greater than 100 µM; with OVCAR-4 ovarian, 98.9 µM. Besides, the TGI in the assay on HL-60(TB) leukemia is 34.6 µM; with OVCAR-8 ovarian it was greater than 100 µM; in the assay on OVCAR-3 ovarian it was greater than 100 µM; with NCI-H226 lung, greater than 100 µM; in the assay on HCT-116 colon, greater than 100 µM; in the assay on SNB-75 CNS, greater than 100 µM. The TGI with NCI/ADR-RES ovarian is greater than 100 µM.
As to `COC(=O)/N=[N+](\[O-])C(c1ccccc1)c1ccccc1`, the TGI with SNB-19 CNS, in the assay with PC-3 prostate, with NCI-H460 lung, in the assay with SK-MEL-2 melanoma, in the assay with OVCAR-4 ovarian and in the assay on HL-60(TB) leukemia was greater than 100 µM throughout. Also, the TGI in the assay with OVCAR-8 ovarian, in the assay with OVCAR-3 ovarian, in the assay on NCI-H226 lung, with HCT-116 colon, in the assay on SNB-75 CNS and in the assay with NCI/ADR-RES ovarian was greater than 100 µM in each case.
For the compound `C=C(Cl)C(C)(Cl)CCC(Cl)C(C)C` (centres undefined), the TGI in the assay on SNB-19 CNS, with PC-3 prostate, in the assay on HOP-62 NSCLC, with NCI-H460 lung, in the assay on SK-MEL-2 melanoma and in the assay with OVCAR-4 ovarian was greater than 100 µM in each case. In addition, the TGI in the assay on HL-60(TB) leukemia, in the assay with OVCAR-3 ovarian, with NCI-H226 lung, in the assay on HCT-116 colon, with SNB-75 CNS and in the assay with NCI/ADR-RES ovarian was greater than 100 µM each time.
With `CCCCCCCCCCOCCOCCOCCOCCCCC(O)CCCCCCCC1=C[C@H](C)OC1=O` (some centres undefined), the concentration for total growth inhibition (TGI) in the assay on SNB-19 CNS is 27.2 µM; in the assay on PC-3 prostate, 20.9 µM; in the assay with NCI-H460 lung, 22 µM; in the assay with SK-MEL-2 melanoma it was 25 µM; in the assay with OVCAR-4 ovarian, 37.7 µM; with HL-60(TB) leukemia, 15.5 µM. Also, the TGI in the assay with OVCAR-8 ovarian was found to be 33.6 µM; in the assay on OVCAR-3 ovarian it was 33.8 µM; in the assay with NCI-H226 lung, 23.4 µM; in the assay on HCT-116 colon, 37.7 µM; with SNB-75 CNS, 24.7 µM; in the assay on NCI/ADR-RES ovarian, 41 µM.
Turning to `CN(C)c1ccc(/C=C(\NC(=O)c2ccccc2)C(=O)Nc2cccc(C(=O)NCCCO)c2)cc1`, the TGI in the assay on SNB-19 CNS, in the assay with PC-3 prostate, in the assay with HOP-62 NSCLC, with NCI-H460 lung, in the assay with SK-MEL-2 melanoma and with OVCAR-4 ovarian was greater than 100 µM in each case. The TGI in the assay with HL-60(TB) leukemia, in the assay on OVCAR-8 ovarian, in the assay on OVCAR-3 ovarian, in the assay with NCI-H226 lung, in the assay with HCT-116 colon and in the assay on SNB-75 CNS was greater than 100 µM each time. Also, in the assay on NCI/ADR-RES ovarian, the TGI is greater than 100 µM.
As to `O=c1[nH]nc(Cc2ccccc2)n1/N=C/c1ccc([N+](=O)[O-])cc1`, the TGI in the assay with PC-3 prostate, in the assay on HOP-62 NSCLC, in the assay with NCI-H460 lung, with SK-MEL-2 melanoma, with OVCAR-4 ovarian and in the assay with HL-60(TB) leukemia was greater than 100 µM in each case. Besides, the concentration for total growth inhibition (TGI) in the assay with OVCAR-8 ovarian, in the assay on OVCAR-3 ovarian, in the assay on NCI-H226 lung, in the assay on HCT-116 colon, with SNB-75 CNS and in the assay on NCI/ADR-RES ovarian was greater than 100 µM in each case.
As to `Cc1cn(C2CCN(CC3COC(C)(C)O3)O2)c(=O)[nH]c1=O` (centres undefined), the TGI in the assay with PC-3 prostate, in the assay with HOP-62 NSCLC, with NCI-H460 lung, in the assay with SK-MEL-2 melanoma, with OVCAR-4 ovarian and in the assay with HL-60(TB) leukemia was greater than 100 µM each time. The TGI with OVCAR-8 ovarian, in the assay on OVCAR-3 ovarian, in the assay with NCI-H226 lung, in the assay on HCT-116 colon, in the assay on SNB-75 CNS and in the assay with NCI/ADR-RES ovarian was greater than 100 µM each time.
Turning to `O=C(NCCCN(CCCCN(CCCNC(=O)c1cc(S(=O)(=O)O)cc(O)c1O)C(=O)c1cc(S(=O)(=O)O)cc(O)c1O)C(=O)c1cc(S(=O)(=O)O)cc(O)c1O)c1cc(S(=O)(=O)O)cc(O)c1O`, the TGI with SNB-19 CNS, in the assay with PC-3 prostate, with NCI-H460 lung, with SK-MEL-2 melanoma, with OVCAR-4 ovarian and with HL-60(TB) leukemia was greater than 100 µM each time. Also, the TGI in the assay with OVCAR-8 ovarian, in the assay on NCI-H226 lung, with HCT-116 colon, with SNB-75 CNS and in the assay on NCI/ADR-RES ovarian was greater than 100 µM each time.
Consider `Cc1ccc(C(=O)Oc2ccc(/C=C3\CCC/C(=C\c4ccc(OC(=O)c5ccc(C)cc5)cc4)C3=O)cc2)cc1`, for which the TGI in the assay on SNB-19 CNS, in the assay on PC-3 prostate, in the assay with HOP-62 NSCLC, in the assay on NCI-H460 lung, in the assay with SK-MEL-2 melanoma and with OVCAR-4 ovarian was greater than 100 µM each time. Also, the TGI with HL-60(TB) leukemia, with OVCAR-8 ovarian, with OVCAR-3 ovarian, in the assay on HCT-116 colon, with SNB-75 CNS and in the assay with NCI/ADR-RES ovarian was greater than 100 µM each time.
As for `O=C1[C@@H](O)[C@@H]2CCCC[C@@]23CCCN13`, the concentration for total growth inhibition (TGI) with SNB-19 CNS, in the assay with PC-3 prostate, in the assay with HOP-62 NSCLC, in the assay with NCI-H460 lung, in the assay on SK-MEL-2 melanoma and in the assay with OVCAR-4 ovarian was greater than 100 µM throughout. Also, the TGI in the assay on HL-60(TB) leukemia, in the assay on OVCAR-8 ovarian, in the assay on NCI-H226 lung, with HCT-116 colon, in the assay with SNB-75 CNS and in the assay on NCI/ADR-RES ovarian was greater than 100 µM in each case.
